Target: 15-PGDH/HPGD (Homo sapiens (Human), UniProt P15428)
Test: hPGDH inhibitor screening biochemical assay
Settings: read-out: hPGDH: Average IC50
Procedure: A hydroxyprostaglandin dehydrogenase inhibition screening biochemical assay can be performed to assess the synthesized inhibitors provided herein. Provided herein is an exemplary biochemical assay for hPGDH inhibitor screening.
The in vitro biochemical assay can be performed in white, 384 plates in total 20 μl reaction volume consisting of 10 nM of 15-PGDH/HPGD (R&D System #5660-DH), 15 μM Prostaglandin E2 (Sigma, Cat #P5640-10MG) and 0.25 mM (3-Nicotinamide adenine dinucleotide sodium salt (Sigma, Cat #N0632-5G) made in reaction buffer (50 mM Tris-HCl, pH 7.5, 0.01% Tween 20) at 10-point dose response curve for test/tool compounds. Briefly, 5 μl (4×) of compounds solution and 5 μl (final concentration, 10 nM) of enzyme solution is added to white 384 well plates and incubated for 10 mins at 37° C. 5 μl (4×) of Prostaglandin E2 and 5 μl (4×) of β-Nicotinamide adenine dinucleotide sodium salt is added to the wells and incubated for 10 mins at room temperature. Fluorescence is recorded at ex/em=340 nm/485 nm. The percentage (%) inhibition of enzyme activity was determined relative to positive control (1% DMSO) and IC50 was calculated using GraphPad prism software (four parameter-variable slope equation).

Chain of 15-PGDH/HPGD (P15428 whole entry): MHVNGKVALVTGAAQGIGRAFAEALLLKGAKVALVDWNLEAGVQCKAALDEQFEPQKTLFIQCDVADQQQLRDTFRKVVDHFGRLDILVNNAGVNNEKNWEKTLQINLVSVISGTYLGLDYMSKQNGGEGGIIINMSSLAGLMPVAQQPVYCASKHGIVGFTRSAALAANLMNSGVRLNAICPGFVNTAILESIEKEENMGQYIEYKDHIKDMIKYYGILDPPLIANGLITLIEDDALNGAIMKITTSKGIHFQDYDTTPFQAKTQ

Row | IC50 [nM] | Compound
1 | ≥ 1000 | COc1ccccc1-c1cn(C)c2cc(C(=O)N3CCC(F)CC3)cnc12 [MF-DH-200, (4-fluoropiperidin-1-yl)(3-(2-methoxyphenyl)-1-methyl-1H-pyrrolo[3,2-b]pyridin-6-yl)methanone]
2 | < 100 | O=C(c1cnc2c(ccn2-c2cccc(C(=O)N3CC[S+]([O-])C3)c2)c1)N1CCC(F)(F)CC1 (centres unmarked) [MF-DH-527, (4,4-difluoropiperidin-1-yl)(1-(3-(1-oxidothiazolidine-3-carbonyl)phenyl)-1H-pyrrolo[2,3-b]pyridin-5-yl)methanone]
3 | < 100 | Cc1nc(-c2cccc(-n3ccc4cc(C(=O)N5CCCCC5)cnc43)c2)no1 [MF-DH-402]
4 | < 100 | O=C(c1ccc2c(c1)ncn2-c1cccc(Cl)c1)N1CCC(Cl)C1 (centres unmarked) [MF-PGDH-049]
5 | < 100 | O=C(c1ccn2c(-c3cccc(Cl)c3)cnc2c1)N1CCCCC1 [MF-PGDH-007, (3-(3-chlorophenyl)imidazo[1,2-a]pyridin-7-yl)(piperidin-1-yl)methanone]
6 | < 100 | O=C(O)c1ccc(-n2ccc3cc(C(=O)N4CCC(F)(F)CC4)cnc32)nc1 [MF-DH-469]
7 | < 100 | N#Cc1cccc(-n2ccc3cc(C(=O)N4CCCCC4)cnc32)c1 [MF-DH-300]
8 | ≥ 1000 | Cc1ccc(S(=O)(=O)n2ccc3cc(C(=O)N4CCCCC4)cnc32)cc1 [MF-DH-312, piperidin-1-yl(1-tosyl-1H-pyrrolo[2,3-b]pyridin-5-yl)methanone]
9 | 100 to 1000 | N#Cc1ccc(-n2c(CCC(N)=O)cc3cc(C(=O)N4CCC(F)(F)CC4)cnc32)cc1 [MF-DH-446, 3-(1-(4-cyanophenyl)-5-(4,4-difluoropiperidine-1-carbonyl)-1H-pyrrolo[2,3-b]pyridin-2-yl)propanamide]
10 | ≥ 1000 | COCCc1nc2cc(C(=O)N3CCC(F)CC3)cnc2n1-c1ccc(OC)cc1 [MF-DH-185]
11 | < 100 | O=C(c1cnc2c(c1)c(Cl)cn2-c1ccc2c(c1)OC(F)(F)O2)N1CCC(F)CC1 [MF-DH-250]
12 | 100 to 1000 | O=C(c1cnc2c(c1)ncn2-c1ccc(O)cc1)N1CCC(F)CC1 [MF-DH-238]
13 | < 100 | O=C(Nc1ccno1)c1ccc(-n2ccc3cc(C(=O)N4CCC(F)(F)CC4)cnc32)cn1
14 | < 100 | O=C(c1cnc2c(ccn2-c2cnccn2)c1)N1CCCCC1 [MF-PGDH-071]
15 | < 100 | COc1ccc(-n2cnc3cc(C(=O)N4CCC(F)CC4)ccc32)nc1 [MF-DH-141]
16 | < 100 | O=C(c1cnc2c(-c3cccc(Cl)c3)cnn2c1)N1CCCCC1 [MF-PGDH-012, (3-(3-chlorophenyl)pyrazolo[1,5-a]pyrimidin-6-yl)(piperidin-1-yl)methanone]
17 | 100 to 1000 | Cc1cn(-c2cnccn2)c2ccc(C(=O)N3CCC(F)CC3)cc12 [MF-DH-180, (4-fluoropiperidin-1-yl)(3-methyl-1-(pyrazin-2-yl)-1H-indol-5-yl)methanone]
18 | < 100 | O=C(c1ccc(COc2ccccc2-c2ccccn2)cc1)N1CCCCC1 [MF-PGDH-095]
19 | < 100 | NC(=O)c1ccc(-n2ccc3cc(C(=O)N4CCC(F)CC4)cnc32)cn1 [MF-DH-355]
20 | < 100 | CN(C)c1ccc(-n2ccc3cc(C(=O)N4CCCCC4)cnc32)cc1 [MF-DH-305]
21 | 100 to 1000 | COc1ccc(-n2ccc3cc(C(=O)N4[C@H](C)CCC[C@@H]4C)cnc32)cc1 [MF-DH-328, ((2R,6S)-2,6-dimethylpiperidin-1-yl)(1-(4-methoxyphenyl)-1H-pyrrolo[2,3-b]pyridin-5-yl)methanone]
22 | < 100 | N#Cc1ccc(-n2ccc3cc(C(=O)N4CCCCC4)cnc32)cc1 [MF-DH-298]
23 | ≥ 1000 | COc1ccccc1C(=O)N(C)c1ccc(C(=O)N2CCCCC2)cc1 [MF-PGDH-042]
24 | 100 to 1000 | O=C(c1ccc2c(c1)ncn2-c1cccc(Cl)c1)N1CC2CC2C1 (centres unmarked) [MF-PGDH-017]

Row | IC50 [nM] | Compound
25 | < 100 | Cn1cc(-n2ccc3cc(C(=O)N4CCC(F)CC4)cnc32)cn1 [MF-DH-139]
26 | 100 to 1000 | COc1cc(C(=O)N2CCC(F)CC2)ccc1COc1ccccc1Cl [MF-DH-118]
27 | 100 to 1000 | N#Cc1ccc(-n2ccc3cc(C(=O)N4CCC(F)(F)CC4)cnc32)nc1 [MF-DH-440]
28 | < 100 | O=C(NC1(C(=O)O)CC1)c1ccc(-n2ccc3cc(C(=O)N4CCC(F)(F)CC4)cnc32)cn1 [MF-DH-430, 1-(5-(5-(4,4-difluoropiperidine-1-carbonyl)-1H-pyrrolo[2,3-b]pyridin-1-yl)picolinamido)cyclopropane-1-carboxylic acid]
29 | 100 to 1000 | O=C(c1ccc(C[S+]([O-])c2ccccc2Cl)cc1)N1CCCCC1 (centres unmarked) [MF-PGDH-045, (4-(((2-chlorophenyl)sulfinyl)methyl)phenyl)(piperidin-1-yl)methanone]
30 | < 100 | COc1cncc(-n2ccc3cc(C(=O)N4CCCCC4)cnc32)c1 [MF-DH-296]
31 | < 100 | O=C(c1ccc2c(c1)ncn2-c1cccc(Cl)c1)N1CC(Cl)C1 [MF-PGDH-107]
32 | ≥ 1000 | N#Cc1ccc(-n2ccc3nc(C(=O)N4CCC(F)CC4)ccc32)cc1 [MF-DH-462, 4-(5-(4-fluoropiperidine-1-carbonyl)-1H-pyrrolo[3,2-b]pyridin-1-yl)benzonitrile]
33 | < 100 | O=C(c1cnc2c(ccn2-c2cncc(NS(=O)(=O)C3CC3)c2)c1)N1CCC(F)(F)CC1 [MF-DH-484, N-(5-(5-(4,4-difluoropiperidine-1-carbonyl)-1H-pyrrolo[2,3-b]pyridin-1-yl)pyridin-3-yl)cyclopropanesulfonamide]
34 | < 100 | COc1ccccc1C(=O)Nc1ccc(C(=O)N2CCCCC2)cc1 [MF-PGDH-041]
35 | 100 to 1000 | COc1cccc(-n2nc(Cl)c3cc(C(=O)N4CCCCC4)ccc32)c1 [MF-DH-272]
36 | 100 to 1000 | O=C(O)[C@@H]1CCCN1C(=O)c1cccc(-n2ccc3cc(C(=O)N4CCC(F)(F)CC4)cnc32)c1 [MF-DH-489, (3-(5-(4,4-difluoropiperidine-1-carbonyl)-1H-pyrrolo[2,3-b]pyridin-1-yl)benzoyl)-L-proline]
37 | ≥ 1000 | O=C(c1ccc2c(c1)ncn2-c1cccc(Cl)c1)N1CCC(F)(F)C1 [MF-PGDH-047]
38 | < 100 | O=C(c1cnc2c(ccn2-c2cncnc2)c1)N1CCCCC1 [MF-PGDH-070]
39 | < 100 | COc1ccc(-n2cnc3cc(C(=O)N4CCCCC4)ccc32)cc1Cl [MF-PGDH-024, (1-(3-chloro-4-methoxyphenyl)-1H-benzo[d]imidazol-5-yl)(piperidin-1-yl)methanone]
40 | ≥ 1000 | O=C(c1cnc2c(ccn2C2CCC(F)(F)CC2)c1)N1CCCCC1 [MF-DH-284]
41 | < 100 | COc1cccc(-n2ccc3cc(C(=O)N4CCCCC4)cnc32)c1 [MF-DH-294]
42 | 100 to 1000 | COc1ccc(-n2c(CCC(F)(F)F)nc3cc(C(=O)N4CCC(F)CC4)cnc32)cc1 [MF-DH-195]
43 | < 100 | NCc1ccc(-n2ccc3cc(C(=O)N4CCCCC4)cnc32)cc1 [MF-DH-304]
44 | < 100 | O=C(c1ccc2c(cnn2-c2cccc(Cl)c2)c1)N1CCCCC1 [MF-PGDH-006, (1-(3-chlorophenyl)-1H-indazol-5-yl)(piperidin-1-yl)methanone]
45 | 100 to 1000 | CC(C)(O)c1cccc(-n2ccc3cc(C(=O)N4CCCCC4)cnc32)c1 [MF-DH-375]
46 | < 100 | O=C(O)[C@@H]1CCCN1C(=O)c1ccc(-n2ccc3cc(C(=O)N4CCC(F)(F)CC4)cnc32)cc1 [MF-DH-432]
47 | < 100 | N#Cc1cncc(-n2ccc3cc(C(=O)N4CCCCC4)cnc32)c1 [MF-DH-364]

From patent US11345702B1 (Myoforte Therapeutics, Inc., priority 2020, dated 2022)
